Data as given in patent US9527857B2, “HSPC-sparing treatments for RB-positive abnormal cellular proliferation” (G1 Therapeutics, Inc., priority 2013, dated 2016).

Key:
[1] = test system: MCF7 (breast adenocarcinoma, Rb-positive); test: Cellular proliferation assay (CellTiter-Glo), MCF7; format: cell-based
Procedure: The MCF7 cells were seeded in Costar (Tewksbury, Mass.) 3903 96 well tissue culture treated white walled/clear bottom plates. A nine point dose response dilution series from 10 uM to 1 nM was performed and cell viability was determined after six days of compound treatment as indicated using the CellTiter-Glo® luminescent cell viability assay (CTG; Promega, Madison, Wis., United States of America) following the manufacturer's recommendations. Plates were read on a BioTek (Winooski, Vt.) Syngergy2 multi-mode plate reader. The Relative Light Units (RLU) were plotted as a result of variable molar concentration and data was analyzed using Graphpad (LaJolla, Calif.) Prism 5 statistical software to determine the EC50 for each compound.
(§1) Cellular proliferation assays were conducted using the following cancer cell lines: MCF7 (breast adenocarcinoma—Rb-positive), ZR-75-1 (breast ductal carcinoma—Rb-positive), H69 (human small cell lung cancer—Rb-negative) cells, or A2058 (human metastatic melanoma cells—Rb-negative). These cells were seeded in Costar (Tewksbury, Mass.) […] 96 well tissue culture treated white walled/clear bottom plates. Cells were treated with the compounds of Table 1 as nine point dose response dilution series from 10 uM to 1 nM. Cells were exposed to compounds and then cell viability was determined after either four (H69) or six (MCF7, ZR75-1, A2058) days as indicated using the CellTiter-Glo® luminescent cell viability assay (CTG; Promega, Madison, Wis., United States of America) following the manufacturer's recommendations. Plates were read on BioTek (Winooski, Vt.) Syngergy2 multi-mode plate reader. The Relative Light Units (RLU) were plotted as a result of variable molar concentration and data was analyzed using Graphpad (LaJolla, Calif.) Prism 5 statistical software to determine the EC50 for each compound.

[2] = target: CDK4/CyclinD1 (Homo sapiens (Human), UniProt P11802); test: CDK4/cyclinD1 kinase assay (Nanosyn, microfluidic Caliper platform); format: biochemical; settings: ATP at Km (200 uM); read-out: CDK4/CycD1 IC50
Sequence of CDK4/CyclinD1 (P11802 whole entry, species assumed): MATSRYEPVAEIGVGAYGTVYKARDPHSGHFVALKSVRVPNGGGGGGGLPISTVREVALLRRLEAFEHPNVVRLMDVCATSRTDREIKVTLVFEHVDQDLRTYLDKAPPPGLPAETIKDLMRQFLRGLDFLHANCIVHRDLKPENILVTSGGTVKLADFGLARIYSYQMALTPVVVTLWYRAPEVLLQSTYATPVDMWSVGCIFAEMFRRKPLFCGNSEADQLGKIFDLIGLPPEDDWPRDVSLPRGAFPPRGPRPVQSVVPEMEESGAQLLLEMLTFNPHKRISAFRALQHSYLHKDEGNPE
Sequence of CDK4/CyclinD1 (P24385 whole entry partner, species assumed): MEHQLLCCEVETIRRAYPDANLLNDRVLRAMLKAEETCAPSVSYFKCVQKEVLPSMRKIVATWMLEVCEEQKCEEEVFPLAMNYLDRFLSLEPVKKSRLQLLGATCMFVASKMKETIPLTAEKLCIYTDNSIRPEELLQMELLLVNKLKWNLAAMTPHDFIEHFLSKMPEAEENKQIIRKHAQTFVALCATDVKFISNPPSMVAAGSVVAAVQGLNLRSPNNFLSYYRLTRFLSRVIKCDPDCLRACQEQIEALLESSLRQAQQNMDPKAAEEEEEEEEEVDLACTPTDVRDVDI
Procedure: (§2) Selected compounds disclosed herein were tested in CDK4/cyclinD1, CDK2/CycA and CDK2/cyclinE kinase assays by Nanosyn (Santa Clara, Calif.) to determine their inhibitory effect on these CDKs. The assays were performed using microfluidic kinase detection technology (Caliper Assay Platform). The compounds were tested in 12-point dose-response format in singlicate at Km for ATP. Phosphoacceptor substrate peptide concentration used was 1 μM for all assays and Staurosporine was used as the reference compound for all assays. Specifics of each assay are as described below:
CDK4/CyclinD1: Enzyme concentration: 1 nM; ATP concentration: 200 μM; Incubation time: 10 hr.

[3] = test system: ZR-75-1 (breast ductal carcinoma, Rb-positive); test: Cellular proliferation assay (CellTiter-Glo), ZR-75-1; format: cell-based
Procedure: as §1

[4] = target: CDK2/CyclinE (Homo sapiens (Human), UniProt P24941); test: CDK2/cyclinE kinase assay (Nanosyn, microfluidic Caliper platform); format: biochemical
Procedure: Selected compounds disclosed herein were tested in CDK4/cyclinD1, CDK2/CycA and CDK2/cyclinE kinase assays by Nanosyn (Santa Clara, Calif.) to determine their inhibitory effect on these CDKs. The assays were performed using microfluidic kinase detection technology (Caliper Assay Platform). The compounds were tested in 12-point dose-response format in singlicate at Km for ATP. Phosphoacceptor substrate peptide concentration used was 1 μM for all assays and Staurosporine was used as the reference compound for all assays.

[5] = target: CDK2/CyclinA (Homo sapiens (Human), UniProt P24941); test: CDK2/CycA kinase assay (Nanosyn, microfluidic Caliper platform); format: biochemical
Procedure: as §2
CDK2/CyclinA: Enzyme concentration: 0.2 nM; ATP concentration: 50 μM; Incubation time: 3 hr.

[6] = Mouse pharmacokinetics (oral gavage / intravenous); format: in vivo, mice; settings: plasma, 30 mg/kg, read-out: F (oral bioavailability)
Procedure: Blood samples were taken at 0, 0.25, 0.5, 1.0, 2.0, 4.0, and 8.0 hours post dosing and the plasma concentrations were determined by HPLC.

[7] = test system: HSPCs (LKS+); test: Bone marrow HSPC proliferation by EdU incorporation and flow cytometry; format: in vivo; settings: 150 mg/kg oral gavage, mice
Procedure: . JCNI 2012; 104(6):476-487 (FIG. 2A). […].
Mice were then sacrificed at the indicated times (0, 12, 24, 36, or 48 hours following compound administration), and bone marrow was harvested (n=3 mice per time point), as previously described (Johnson et al. J. Clin. Invest. (2010) 120(7), 2528-2536). Four hours before the bone marrow was harvested, mice were treated with 100 μg of EdU by intraperitoneal injection (Invitrogen). Bone marrow mononuclear cells were harvested and immunophenotyped using previously described methods and percent EdU positive cells were then determined (Johnson et al. J. Clin. Invest. (2010) 120(7), 2528-2536). In brief, HSPCs were identified by expression of lineage markers (Lin−), Sca1 (S+), and c-Kit (K+).
Four hours before animals were sacrificed and the bone marrow was harvested, mice were treated with 100 μg of EdU by intraperitoneal injection. Three mice per group were sacrificed at 12 hours and the remaining three animals per group were sacrificed at 24 hours. Results are shown in FIG. 5A as the ratio of EdU positive cells for treated animals at 12 or 24 hour time points compared to control.
Further experiments were completed with Compound T examining dose response and longer periods of compound treatment. […] […].
Both compounds were administered at 150 mg/kg by oral gavage. One hour prior to harvesting bone marrow, EdU was IP injected to label cycling cells. Bone marrow was harvested at 12, 24, 36, and 48 hours after compound treatment and the percentage of EdU positive HSPC cells was determined at each time point.

[8] = test system: MMTV-c-neu (Rb-positive) tumors; test: MMTV-c-neu HER2-driven (Rb-positive) luminal breast cancer mouse model; format: in vivo, mice
Description: A HER2-driven model (Rb-positive) of breast cancer (Muller W J, Sinn E, Pattengale P K, Wallace R, Leder P. Single-step induction of mammary adenocarcinoma in transgenic mice bearing the activated c-neu oncogene. Cell 1988; 54: 105-15), that expresses c-neu (the mouse ortholog of human HER2) driven by the MMTV promoter was used in the following example. This model was chosen because previous studies in murine (Yu Q, Geng Y, Sicinski P. Specific protection against breast cancers by cyclin D1 ablation. Nature 2001; 411: 1017-21; Landis M W, Pawlyk B S, Li T, Sicinski P, Hinds P W. Cyclin D1-dependent kinase activity in murine development and mammary tumorigenesis. Cancer Cell 2006; 9: 13-22; Reddy H K, Mettus R V, Rane S G, Grana X, Litvin J, Reddy E P. Cyclin-dependent kinase 4 expression is essential for neu-induced breast tumorigenesis. Cancer Res 2005; 65: 10174-8; Yu Q, Sicinska E, Geng Y, Ahnstrom M, Zagozdzon A, Kong Y, et al. Requirement for CDK4 kinase function in breast cancer. Cancer Cell 2006; 9: 23-32.) and human HER2-positive breast cancer (An H X, Beckmann M W, Reifenberger G, Bender H G, Niederacher D. Gene amplification and overexpression of CDK4 in sporadic breast carcinomas is associated with high tumor cell proliferation. Am J Pathol 1999; 154: 113-8; Samady L, Dennis J, Budhram-Mahadeo V, Latchman DS. Activation of CDK4 gene expression in human breast cancer cells by the Brn-3b POU family transcription factor. Cancer Biol Ther 2004; 3: 317-23; Takano Y, Takenaka H, Kato Y, Masuda M, Mikami T, Saegusa M, et al. Cyclin D1 overexpression in invasive breast cancers: correlation with cyclin-dependent kinase 4 and oestrogen receptor overexpression, and lack of correlation with mitotic activity.
MMTV-neu mice were generated and observed post-lactation, with tumors observed with a median latency of approximately 25 weeks. Mice were enrolled in therapy studies when tumors reached a standard size (50-60 mm3) that permitted easy serial assessment. […] Tumor volumes were calculated by the formula, Volume=[(width)^2×length]/2. Tumor-bearing mice were euthanized at the indicated times due to predefined morbidity, tumor ulceration, or a tumor size of more than 1.5 cm in diameter.
Tumors were serially assessed weekly using caliper measurements. Therapeutic intervention began once tumors reached 40-64 mm^3. Tumor volume was calculated using the formula […]. All three compounds were administered orally via medicated diets (100 mg/kg/d). Medicated diets were administered for 28 consecutive days and then stopped. RECIST criteria were used to assess objective response rates.

Structure (SMILES): CN1CCN(C(=O)c2ccc(Nc3ncc4cc5n(c4n3)C3(CCCC3)CNC5=O)nc2)CC1 [BBB]
- EC50 ([1]; Homo sapiens, MCF7, 144 h, six days): 0.123 µM

Structure (SMILES): CC(C)(O)CN1CCN(c2ccc(Nc3ncc4cc5n(c4n3)C3(CCCC3)CNC5=O)nc2)CC1 [EEE]
- IC50 [2]: 0.0002 µM

Structure (SMILES): CC1(C)CN(c2ccc(Nc3ncc4cc5n(c4n3)C3(CCCCC3)CNC5=O)nc2)CCN1CC1CC1 [H]
- inhibition of cellular proliferation of MCF-7 cells (FIGS. 21-24) [1]: significant inhibition of cellular proliferation
- inhibition of cellular proliferation of ZR75-1 cells (FIGS. 25-28) [3]: significant inhibition of cellular proliferation

Structure (SMILES): C[C@@H]1CN(c2ccc(Nc3ncc4cc5n(c4n3)C3(CCCCC3)CNC5=O)nc2)C[C@H](C)N1C[C@@H](C)O [MM]
- inhibition of cellular proliferation of MCF-7 cells (FIGS. 21-24) [1]: significant inhibition of cellular proliferation
- inhibition of cellular proliferation of ZR75-1 cells (FIGS. 25-28) [3]: significant inhibition of cellular proliferation

Structure (SMILES): CC1CN(c2ccc(Nc3ncc4cc5n(c4n3)C3(CCCCC3)CNC5=O)nc2)C[C@@H](C)N1CC1CC1 (some centres unmarked) [OO]
- inhibition of cellular proliferation of MCF-7 cells (FIGS. 21-24) [1]: significant inhibition of cellular proliferation
- inhibition of cellular proliferation of ZR75-1 cells (FIGS. 25-28) [3]: significant inhibition of cellular proliferation

Structure (SMILES): CC1CN(c2ccc(Nc3ncc4cc5n(c4n3)C3(CCCC3)CNC5=O)nc2)CCN1CCC(C)(C)C (centres unmarked) [PPP]
- IC50 [2]: 0.0008 µM
- Fold Selectivity (CDK2/CycE/CDK4) [4]: 21263
- IC50 ([4]; ATP at Km (100 uM), read-out: CDK2/CycE IC50): 16.5 µM
- Fold Selectivity (CDK2/CycA/CDK4) [5]: 3402
- IC50 ([5]; ATP at Km (50 uM)): 2.64 µM

Structure (SMILES): O=C1NCC2(CCCCC2)n2c1cc1cnc(Nc3ccc(N4CCNCC4)cn3)nc12 [Q]
- inhibition of cellular proliferation of MCF-7 cells (FIGS. 21-24) [1]: significant inhibition of cellular proliferation
- inhibition of cellular proliferation of ZR75-1 cells (FIGS. 25-28) [3]: significant inhibition of cellular proliferation
- bioavailability [6]: 2%
- EdU incorporation into HSPCs at 12 and 24 hours (FIG. 5A) [7]: some reduction at 12 hours and started to return to baseline at 24 hours

Structure (SMILES): O=C1NCC2(CCCCC2)n2c1cc1cnc(Nc3ccc(N4CCC(N5CCOCC5)CC4)cn3)nc12 [U]
- inhibition of cellular proliferation of MCF-7 cells (FIGS. 21-24) [1]: significant inhibition of cellular proliferation
- inhibition of cellular proliferation of ZR75-1 cells (FIGS. 25-28) [3]: significant inhibition of cellular proliferation
- bioavailability [6]: 67%
- tumor volume during a 28 day course of therapy ([8]; 100 mg/kg/d in chow): marked decrease in tumor volume
- objective response rate ([8]; 100 mg/kg/day medicated diet, 28 days, RECIST criteria): 100%

Structure (SMILES): CCC(C)[C@@H]1CNC(=O)c2cc3cnc(Nc4ccc(N5CCNCC5)cn4)nc3n21 (some centres unmarked) [VVV]
- Fold Selectivity (CDK2/CycE/CDK4) [4]: 589
